Data published in ChEMBL document CHEMBL3856265, “Conditional changes enhanced production of bioactive metabolites of marine derived fungus Eurotium rubrum” (Bioorg Med Chem Lett, 2016).

Experiment: Inhibition of melanogenesis in theophylline-stimulated mouse B16-4A5 cells assessed as reduction in melanin level incubated for 72 hrs
Format: functional, cell-based
Settings: B16-4A5, 72 h

| SMILES | IC50 [µM] |
| --- | --- |
| OC[C@H]1O[C@H](Oc2ccc(O)cc2)[C@H](O)[C@@H](O)[C@@H]1O | 611 |
| C=CC(C)(C)c1[nH]c2c(CC=C(C)C)cc(CC=C(C)C)cc2c1C[C@@H]1NC(=O)[C@H](C)NC1=O [ECHINULIN] | 68 |
